Measured values as given in publication PMC10499324, “The differing effects of a dual acting regulator on SIRT1” (Frontiers in Molecular Biosciences, 2023).
Several values for one entry are separate records, joined by “and”; a condition that tells them apart may be missing. Equal values may be shown once. Where no end group is shown, it is not given here.

Assays:
hSIRT1-143 [1] = molecular target: T1, hSIRT1-143 (Homo sapiens, UniProt Q96EB6); experiment: Small angle X-ray scattering (SAXS) of SIRT1 complexes; settings: for Rg / Rxs: + 200 μM resveratrol; for Δ Rg / Δ Rxs: + vs - 200 μM resveratrol; for Rg: values in Å; for Rxs: values in Å
T1 construct: Schematic of SIRT1-143 design, consisting of residues 143–512 and the region 641–665; SUMO (smt3) (N, cleaved yes); His tag (N, cleaved yes); made in house; host or cells: E. coli BL21 (DE3)
T1 sequence (Q96EB6 143-512 limits assumed): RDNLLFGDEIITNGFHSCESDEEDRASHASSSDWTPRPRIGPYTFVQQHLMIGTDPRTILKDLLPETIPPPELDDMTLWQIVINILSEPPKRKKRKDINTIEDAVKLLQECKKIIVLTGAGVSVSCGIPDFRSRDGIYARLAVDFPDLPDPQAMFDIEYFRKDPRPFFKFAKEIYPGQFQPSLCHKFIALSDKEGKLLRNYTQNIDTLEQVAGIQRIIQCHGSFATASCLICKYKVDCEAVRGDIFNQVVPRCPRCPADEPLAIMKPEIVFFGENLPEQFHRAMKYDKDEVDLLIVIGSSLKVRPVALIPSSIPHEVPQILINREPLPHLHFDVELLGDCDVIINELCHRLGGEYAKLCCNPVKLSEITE
T1 sequence (Q96EB6 641-665 limits assumed): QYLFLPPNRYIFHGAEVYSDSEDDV
Description: SAXS samples were prepared with 40 μM of hSIRT1-143 in storage buffer (50 mM Tris pH 8.0, 150 mM NaCl, 1 mM DTT). All samples contained 640 μM of NAD^+ analog ADPr (adenosine diphosphate ribose) except for the apo SIRT1 sample. Varying concentrations of different peptide substrates (500–5,000 μM) were added to the different samples. The concentration of peptide substrate added was determined based on previous kinetics assays to ensure that SIRT1 is mostly saturated with the peptide.
With an X-ray wavelength of 1.216 Å and a sample-to-detector distance of 2070 mm, the scattering vector, q, varied from 0.01 to 0.45. Where 2θ is the scattering angle, the scattering vector is defined as q = 4π sin θ/λ. The experiments were conducted at a temperature of 20°C. The sample was placed for 10 s with the detector framing at 0.3 s to optimize the signal using the SAXS FrameSlice program (https://bl1231.als.lbl.gov/ran). ATSAS 3.0 Primus software was utilized to plot and analyze the combined SAXS ([Manalastas-Cantos et al., 2021]).

hSIRT1-143 [2] = molecular target: T1, hSIRT1-143; experiment: Differential scanning fluorimetry (SYPRO Orange) thermal stability of SIRT1 complexes; type: binding; settings: SIRT1•ADPr•Ac-H3; 200 μM resveratrol; single data set
hSIRT1-143 [3] = molecular target: T1, hSIRT1-143; experiment: Enzyme-coupled continuous SIRT1 deacetylase kinetics assay (Michaelis-Menten); type: biochemical; settings: for K M / k cat / k cat/K M: peptide as substrate, without resveratrol
Description: Assays were conducted in accordance with a prior publication ([Smith et al., 2009]). Peptide substrates were 11 or 13-mer peptides with acetylated lysine at the middle residue position, synthesized and purified by Elim BioPharm (Hayward, CA) to a purity of 90%. The following reagents were used in the assay mixtures: 5–640 μM peptide substrate, 640 μM NAD^+, 2 mM MPB-PncA (nicotinamidase), 20 mM phosphate buffer pH 7.6, 3 mM α-ketoglutarate, 1 mM DTT, 0.2 mM NADPH, and 6.7 units of glutamate dehydrogenase. Then, 0.2–1 μM of the SIRT1 enzyme was added to start the reactions. SIRT1 reactions were conducted in a transparent, flat-bottomed, 96-well plate with a final volume of 150 μL per well and read with a BioTek™ Synergy HTX Multimode Reader. […] After SIRT1 was added, absorbance at 340 nm was measured to quantify the rate of NADPH depletion for a duration of 10 min. Initial rates of the reaction were calculated using 6.22 mM^-1cm^-1 as the extinction coefficient for NADPH and fitting the slope of the linear component of the reaction. The initial velocity of the reaction absent the peptide substrate, which served as a background control, was subtracted from the initial velocities of all other reactions. By fitting the initial rate data to the Michaelis-Menten equation in GraphPad Prism, the values for k cat and K M were obtained.

hSIRT1-143 [4] = molecular target: T1, hSIRT1-143; experiment: Differential scanning fluorimetry (SYPRO Orange) thermal stability of SIRT1 complexes; type: binding; settings: 200 μM resveratrol
Description: Differential Scanning Fluorimetry experiments were performed in a 384-well plate using a qTOWER real-time PCR thermal cycler (Analytik Jena). Fluorescence intensity was measured in the TAMRA channel (Ex: 535 nm Em: 580 nm) over a period of 1 h with a 1°C increase temperature ramp per cycle in “Normal” mode. […] 1:100 SYPRO® Orange (Millipore) dye diluted in buffer was also added to each well. All measurements were performed in triplicate, with buffer-only controls containing ADPr, resveratrol, and peptide performed for all conditions. Tma was calculated using the first derivative method and fitting a Lorentzian distribution to the first derivative curve (Tma = center of curve/inflection point) in GraphPad Prism ([Wu et al., 2020]).

[5] = towards Ac-p53W, 200 μM resveratrol

## Oc1ccc(/C=C/c2cc(O)cc(O)c2)cc1 [resveratrol]
hSIRT1-143 [1]; SIRT1•ADPr
  Rg: 35.45 Å
  Rxs: 14.19 Å
  Δ Rg: 1.7%
  Δ Rxs: 39.9%
hSIRT1-143 [1]; SIRT1•ADPr•Ac-CSNK
  Rg: 33.87 Å
  Rxs: 12.67 Å
  Δ Rg: 4.9%
hSIRT1-143 [1]; SIRT1•ADPr•Ac-H3
  Rg: 35.94 Å
  Rxs: 12.42 Å
  Δ Rg: 3.1%
hSIRT1-143 [1]; SIRT1•ADPr•Ac-H4
  Rg: 36.99 Å
  Rxs: 13.7 Å
  Δ Rg: 7.3%
hSIRT1-143 [1]; SIRT1•ADPr•Ac-p53
  Rg: 34.92 Å
  Rxs: 14.37 Å
  Δ Rg: 9.2%
hSIRT1-143 [1]; SIRT1•ADPr•Ac-p53W
  Rg: 36.91 Å
  Rxs: 13.86 Å
  Δ Rg: 9% and 8.9%
  Δ Rxs: 7% and 6.9%
hSIRT1-143 [1]; apo SIRT1
  Rg: 32.26 Å
  Rxs: 11.26 Å
  Δ Rg: 6.3%
  Δ Rxs: 9.7%
hSIRT1-143 [2]
  Tma + res: 46.3 ± 0.55 °C
hSIRT1-143 [3]; towards Ac-p53, Ac-H4, Ac-H3 and Ac-CSNK, 200 μM resveratrol
  increases in K M: 2-6 fold
hSIRT1-143 [3]; [5]
  decrease in K M: 2 fold
  increase of overall SIRT1 activity (k cat/K M): 2 fold
hSIRT1-143 [3]; towards any of the peptide substrates, 200 μM resveratrol
  effect on k cat values: did not have significant effects
hSIRT1-143 [4]; SIRT1 in complex with ADPr
  decrease of Tma: 0.2 °C
hSIRT1-143 [4]; SIRT1•ADPR•Ac-p53W complex
  decrease of melting temperature: 1 °C
hSIRT1-143 [4]; SIRT1•ADPr
  Tma + res: 49.9 ± 0.44 °C
hSIRT1-143 [4]; SIRT1•ADPr•Ac-CSNK
  Tma + res: 46.0 ± 0.94 °C
hSIRT1-143 [4]; SIRT1•ADPr•Ac-H4
  Tma + res: 46.5 ± 1.49 °C
hSIRT1-143 [4]; SIRT1•ADPr•Ac-p53
  Tma + res: 48.2 ± 0.54 °C
hSIRT1-143 [4]; SIRT1•ADPr•Ac-p53W
  Tma + res: 49.5 ± 0.46 °C
hSIRT1-143 [4]; apo SIRT1
  Tma + res: 49.4 ± 0.48 °C
  decrease of Tma: 1.7 °C

## ^2ASSSGSK^AcAEFIVG^14 (ASSSGSK(Ac)AEFIVG; UniProt P48729 2-14, looked up, fragment) [Ac-CSNK, 13-mer SIRT1 peptide substrate with acetylated lysine, casein kinase 1 alpha 1 (K8)]
hSIRT1-143 [3]
  K M: 78 ± 2.2 µM
  k cat: 0.06 ± 0.002 s⁻¹
  k cat/K M: 700 ± 200 M⁻¹ s⁻¹

## ^3VRGKAGK^AcGLGKGG^15 [Ac-H4]
hSIRT1-143 [3]
  K M: 108 ± 5.5 µM
  k cat: 0.09 ± 0.006 s⁻¹
  k cat/K M: 1000 ± 400 M⁻¹ s⁻¹

## ^9KSTGGK^AcAPRKQ^19 [Ac-H3]
hSIRT1-143 [3]
  K M: 121 ± 12.6 µM
  k cat: 0.06 ± 0.009 s⁻¹
  k cat/K M: 500 ± 300 M⁻¹ s⁻¹

## ^376STSRHKK^AcLMFKTE^388 (STSRHKK(Ac)LMFKTE; UniProt P04637 376-388, looked up, fragment) [Ac-p53, 13-mer SIRT1 peptide substrate with acetylated lysine, p53(K382)]
hSIRT1-143 [3]
  K M: 25 ± 0.2 µM
  k cat: 0.08 ± 0.009 s⁻¹
  k cat/K M: 3000 ± 30 M⁻¹ s⁻¹

## ^376STSRHKK^AcWMFKTE^389 [Ac-p53W]
hSIRT1-143 [3]
  K M: 13 ± 1.4 µM
  k cat: 0.06 ± 0.001 s⁻¹
  k cat/K M: 5000 ± 500 M⁻¹ s⁻¹
